The values below come from patent US7767694B2, “Pharmaceutical composition having prokinetic effect” (N-Gene Research Laboratories Inc., priority 2004, dated 2010).

The test system of the test is sphincter of Oddi muscle rings. The experiment in a line: Biliary sphincter of Oddi muscle rings with cholecystokinin octapeptide and BGP-15 (isometric tension, organ bath). The settings on record: BGP-15 20 mg/kg daily for 5 days, CCK-8 5 × 10^−7 M, combination: BGP-15 pretreatment 5 days then CCK-8, average of 6.

Experimental: The sphincter of Oddi was removed from adult male New Zealand white rabbits weighing 3.5-4 kg, and muscle ring of about 3 mm width were prepared. […] The organ bath was maintained at 37° C. and aerated continuously with carbogen (5% of carbon dioxide in oxygen according to European Pharmacopoeia, Edition III). The initial tension was set to 10 mN and the rings were allowed to equilibrate over 1 hour.
In case of each test type, 6 parallel experiments were carried out, and the average of the results obtained was determined. The following test types were made:
treatment with cholecystokinin octapeptide to simulate the effect existing in the living organism,
treatment with organ bath (control group).
In the treatment with cholecystokinin octapeptide, 5×10^-7 M of the polypeptide was employed.

With Cholecystokinin octapeptide [CCK-8], the Max. relaxation (control 0) is reported as 5 mN. The Max. tonic contraction (control 10) came to 24 mN. Moreover, the Frequency of contraction (control 13) worked out at 19 c/min. Further, the Max. contraction (control 16) is given as 29 mN.
